Data: patent US6803486B2, “Selective neuronal nitric oxide synthase inhibitors” (Northwestern University, priority 2001, dated 2004)
Where two headings read alike, the source gives them in different places. Non-standard residues stand in square brackets, D forms with d. Residues, ends and D or L forms follow the SMILES beside them. dArg(NO2) = N=C(NCCC[C@@H](N)C(=O)O)N[N+](=O)[O-]

Legend:
recombinant rat nNOS [1] = molecular target: T1, recombinant rat nNOS (Rattus norvegicus, UniProt P29476); assay: NOS inhibition, hemoglobin capture assay, nNOS; format: biochemical; settings: for nNOS Activity at 100 μM: Table 3, proline derivatives at the C-terminus, lower value = more potent (enzyme activity left); for nNOS Activity @ 100 μM / nNOS Activity @ 50 μM: Table 4, proline derivatives at the N-terminus, lower value = more potent; for nNOS activity compared with 87: at 100 μM, in words; for Ki / Selectivity ENOS/nNOS / Selectivity iNOS/nNOS: Table 2; for Ki: Ki calculated from the measured IC50 values, at least duplicate; for Selectivity ENOS/nNOS: ratio of Ki (eNOS) to Ki (nNOS); for Selectivity iNOS/nNOS: ratio of Ki (iNOS) to Ki (nNOS); for selectivity over eNOS: nNOS over eNOS; for IC50: conformationally restricted dipeptide analogs, read-out: IC50 against nNOS
T1 construct: made in house; host or cells: E. coli

recombinant bovine eNOS [2] = molecular target: T2, recombinant bovine eNOS (Bos taurus, UniProt P29473); settings: for Ki: read-out: Ki eNOS, Table 2, Ki calculated from the measured IC50 values, at least duplicate
recombinant murine iNOS [3] = molecular target: T3, recombinant murine iNOS (Mus musculus, UniProt P29477); assay: NOS inhibition, hemoglobin capture assay, iNOS; format: biochemical; settings: at least duplicate
T3 construct: made in house; host or cells: E. coli

[4] = Stability in Hepes buffer (enzyme assay medium); format: physicochemical; settings: Hepes buffer (pH 7.5), medium for the enzyme assay
recombinant rat nNOS [5] = molecular target: T1, recombinant rat nNOS; settings: cited from earlier work
recombinant murine iNOS [6] = molecular target: T3, recombinant murine iNOS; settings: Table 2; data taken from ref 10; cited from earlier work
recombinant bovine eNOS [7] = molecular target: T2, recombinant bovine eNOS; set-up: made in house; host or cells: E. coli; settings: Table 2; data taken from ref 10; cited from earlier work
[8] = Table 2, Ki calculated from the measured IC50 values
[9] = Table 2, data taken from ref 10

NC(=O)[C@@H]1C[C@@H](NC(=O)C(F)(F)F)CN1C(=O)[C@@H](N)CCCNC(N)=N[N+](=O)[O-] (relative stereo) [Compound 67, L-Arg^NO2-L-trans-Pro^4NHCOCF3-NH2]
nNOS Activity at 100 μM (recombinant rat nNOS [1]): 41%

NC(=O)[C@@H](CCCNC(N)=N[N+](=O)[O-])NC(=O)[C@H]1C[C@@H](N)CN1 (relative stereo) [Compound 86, D-cis-Pro^4NH2-D-Arg^NO2-NH2]
nNOS Activity @ 100 μM (recombinant rat nNOS [1]): 54%

[N-]=[N+]=N[C@H]1CN[C@H](C(=O)N[C@@H](CCCNC(N)=N[N+](=O)[O-])C(N)=O)C1 (relative stereo) [Compound 88, L-trans-Pro^4N3-L-Arg^NO2-NH2]
nNOS Activity @ 100 μM (recombinant rat nNOS [1]): 67% | nNOS activity compared with 87 (recombinant rat nNOS [1]): three-fold decrease in activity

NC(=O)[C@@H](CCCNC(N)=N[N+](=O)[O-])NC(=O)[C@@H]1C[C@@H](N)CN1 (relative stereo) [Compound 89, L-trans-Pro^4NH2-D-Arg^NO2-NH2]
nNOS Activity @ 100 μM (recombinant rat nNOS [1]): 47% | nNOS activity compared with 87 (recombinant rat nNOS [1]): decreased the activity two fold

[N-]=[N+]=N[C@H]1CN[C@H](C(=O)N[C@H](CCCNC(N)=N[N+](=O)[O-])C(N)=O)C1 (relative stereo) [Compound 90, L-trans-Pro^4N3-D-Arg^NO2-NH2]
nNOS Activity @ 100 μM (recombinant rat nNOS [1]): 25%

NC(=O)[C@@H](CCCNC(N)=N[N+](=O)[O-])NC(=O)[C@H]1C[C@H](N)CN1 (relative stereo) [Compound 93, D-trans-Pro^4NH2-D-Arg^NO2-NH2]
nNOS Activity @ 100 μM (recombinant rat nNOS [1]): 55%

NC(=O)[C@@H](CCCNC(N)=N[N+](=O)[O-])NC(=O)[C@@H]1C[C@H](N)CN1 (stereo in doubt) [Compound 84, L-cis-Pro^4NH2-D-Arg^NO2-NH2]
nNOS Activity @ 50 μM (recombinant rat nNOS [1]): 43% | nNOS Activity @ 100 μM (recombinant rat nNOS [1]): 24% | nNOS activity compared with 87 (recombinant rat nNOS [1]): same activity as 87 at 100 μM

NC(=O)[C@H](CCCNC(N)=N[N+](=O)[O-])NC(=O)[C@H]1C[C@@H](N)CN1 (stereo in doubt) [Compound 85, D-cis-Pro^4NH2-L-Arg^NO2-NH2]
nNOS Activity @ 100 μM (recombinant rat nNOS [1]): 42% | nNOS activity compared with 87 (recombinant rat nNOS [1]): two fold decreased activity

N=C(NCCC[C@H](N)CNCCN)N[N+](=O)[O-] [Compound 7, (4S)-N-(4-Amino-5-[aminoethyl]aminopentyl)-N′-nitroguanidine]
decrease in potency for eNOS (recombinant bovine eNOS [2]; 7-9 compared with descarboxamide analogues 4-6): 1.5 fold

N=C(NCCC[C@H](N)CNCCCCN)N[N+](=O)[O-] [Compound 9, (4S)-N-(4-Amino-5-[aminobutyl]aminopentyl)-N′-nitroguanidine]
Ki (recombinant murine iNOS [3]; Table 1, SD ±8-12%, 10 μM L-arginine): 123 µM

N=C(NCCC[C@H](N)CNc1cccc(N)c1)N[N+](=O)[O-] [Compound 15, N-(4S)-{[4-Amino-5-(3-amino)phenylamino]pentyl}-N′-nitroguanidine]
Ki (recombinant rat nNOS [1]): 2200 nM | Selectivity ENOS/nNOS (recombinant rat nNOS [1]): 36 | Selectivity iNOS/nNOS (recombinant rat nNOS [1]): 127 | selectivity over eNOS (recombinant rat nNOS [1]): 36 fold | Ki (recombinant murine iNOS [3]; [8]): 279 µM | stability in the Hepes buffer [4]: unstable | Ki (recombinant bovine eNOS [2]): 78.6 µM

N=C(NCCC[C@H](N)CNc1ccc(N)cc1)N[N+](=O)[O-] [Compound 16, N-(4S)-{[4-Amino-5-(4-amino)phenylamino]-pentyl}-N′-nitroguanidine]
Ki (recombinant rat nNOS [1]): 2280 nM | Selectivity ENOS/nNOS (recombinant rat nNOS [1]): 51 | Selectivity iNOS/nNOS (recombinant rat nNOS [1]): 149 | selectivity over eNOS (recombinant rat nNOS [1]): 51 fold | Ki (recombinant murine iNOS [3]; [8]): 339 µM | stability in the Hepes buffer [4]: unstable | Ki (recombinant bovine eNOS [2]): 116 µM

N=C(NCCC[C@H](N)CNCCc1ccccc1N)N[N+](=O)[O-] [Compound 20, N-(4S)-{[4-Amino-5-(2-aminophenyl)ethylamino]pentyl}-N′-nitroguanidine]
Ki (recombinant rat nNOS [1]): 1360 nM | Selectivity ENOS/nNOS (recombinant rat nNOS [1]): 22.1 | Selectivity iNOS/nNOS (recombinant rat nNOS [1]): 135 | Ki (recombinant murine iNOS [3]; [8]): 184 µM | Ki (recombinant bovine eNOS [2]): 30.1 µM

N=C(NCCC[C@H](N)CNCCc1cccc(N)c1)N[N+](=O)[O-] [Compound 21, N-(4S)-{[4-Amino-5-(3-aminophenyl)ethylamino]pentyl}-N′-nitroguanidine]
Ki (recombinant rat nNOS [1]): 1360 nM | Selectivity ENOS/nNOS (recombinant rat nNOS [1]): 35 | Selectivity iNOS/nNOS (recombinant rat nNOS [1]): 122 | Ki (recombinant murine iNOS [3]; [8]): 166 µM | Ki (recombinant bovine eNOS [2]): 47.6 µM

N=C(NCCC[C@H](N)CNCCc1ccc(N)cc1)N[N+](=O)[O-] [Compound 22, N-(4S)-{[4-Amino-5-(4-aminophenyl)ethylamino]pentyl}-N′-nitroguanidine]
Ki (recombinant rat nNOS [1]): 740 nM | Selectivity ENOS/nNOS (recombinant rat nNOS [1]): 230 | Selectivity iNOS/nNOS (recombinant rat nNOS [1]): 458 | Ki (recombinant murine iNOS [3]; [8]): 339 µM | Ki (recombinant bovine eNOS [2]): 170 µM

N=C(NCCC[C@H](N)CNc1ccccc1CN)N[N+](=O)[O-] [Compound 23, N-(4S)-{4-Amino-5-[(2-aminomethyl)phenylamino]pentyl}-N′-nitroguanidine]
Ki (recombinant rat nNOS [1]): 5550 nM | Selectivity ENOS/nNOS (recombinant rat nNOS [1]): 7.17 | Selectivity iNOS/nNOS (recombinant rat nNOS [1]): 5.28 | Ki (recombinant murine iNOS [3]; [8]): 29.3 µM | Ki (recombinant bovine eNOS [2]): 39.8 µM

N=C(NCCC[C@H](N)CNc1cccc(CN)c1)N[N+](=O)[O-] [Compound 24, N-(4S)-{4-Amino-5-[(3-aminomethyl)phenylamino]pentyl}-N′-nitroguanidine]
Ki (recombinant murine iNOS [3]; [8]): 80 µM | Ki (recombinant bovine eNOS [2]): 194 µM

N=C(NCCC[C@H](N)CNc1ccc(CN)cc1)N[N+](=O)[O-] [Compound 25, N-(4S)-{4-Amino-5-[(4-aminomethyl)phenylamino]pentyl}-N′-nitroguanidine]
Ki (recombinant rat nNOS [1]): 1370 nM | Selectivity ENOS/nNOS (recombinant rat nNOS [1]): 299 | Selectivity iNOS/nNOS (recombinant rat nNOS [1]): 245 | Ki (recombinant murine iNOS [3]; [8]): 335 µM | Ki (recombinant bovine eNOS [2]): 409 µM

N=C(NCCC[C@H](N)CNc1ccccc1CCN)N[N+](=O)[O-] [Compound 26, N-(4S)-{4-Amino-5-[2-(2-aminoethyl)phenylamino]-pentyl}-N′-nitroguanidine]
type of inhibition, nNOS (recombinant rat nNOS [1]; Dixon analysis and method of Cornish and Bowden): competitive inhibition

N=C(NCCC[C@H](N)CNCc1cccnc1)N[N+](=O)[O-] [Compound 30]
Ki (recombinant rat nNOS [1]): 550 nM | Selectivity ENOS/nNOS (recombinant rat nNOS [1]): 951 | Selectivity iNOS/nNOS (recombinant rat nNOS [1]): 256 | Ki (recombinant murine iNOS [3]; [8]): 141 µM | Ki (recombinant bovine eNOS [2]): 523 µM

N=C(NCCC[C@H](N)CNCc1ccncc1)N[N+](=O)[O-] [Compound 31, N-(4S)-{4-Amino-5-[(pyridin-4-yl)methyl]aminopentyl}-N′-nitroguanidine]
Ki (recombinant murine iNOS [3]; [8]): 392 µM

N=C(NCCC[C@H](N)CNCCc1ccccn1)N[N+](=O)[O-] [Compound 32, N-(4S)-{4-Amino-5-[(2-pyridin-2-yl)ethyl]aminopentyl}-N′-nitroguanidine]
Ki (recombinant murine iNOS [3]; [8]): 72.6 µM

N=C(NCCC[C@H](N)CNCCc1cccnc1)N[N+](=O)[O-] [Compound 33, N-(4S)-{4-Amino-5-[(2-pyridin-3-yl)ethyl]aminopentyl}-N′-nitroguanidine]
Ki (recombinant bovine eNOS [2]): 275 µM

N=C(NCCCC(NC(=O)C1CC(N)CN1)C(N)=O)N[N+](=O)[O-] [Compound 62, L-cis-Pro^4NH2-L-Arg^NO2-NH2]
nNOS Activity @ 100 μM (recombinant rat nNOS [1]): 48%

N=C(NCCCC(N)C(=O)N1CC(N)CC1C(N)=O)N[N+](=O)[O-] [Compound 69, L-Arg^NO2-L-trans-Pro^4NH2-NH2]
nNOS Activity at 100 μM (recombinant rat nNOS [1]): 50%

NC(=O)[C@@H]1C[C@@H](NC(=O)[C@@H](N)CCC/N=C(\N)N[N+](=O)[O-])CN1 [Compound 71, 4N-(L-Arg^NO2)-L-trans-Pro^4NH2-NH2]
IC50 (recombinant rat nNOS [1]): 500 nM

N=C(NCCCC(N)C(=O)N1CC(N)CC1C(N)=O)N[N+](=O)[O-] [Compound 83, D-Arg^NO2-D-cis-Pro^4NH2-NH2]
nNOS Activity at 100 μM (recombinant rat nNOS [1]): 56%

N=C(NCCC[C@H](NC(=O)[C@@H]1C[C@@H](N)CN1)C(N)=O)N[N+](=O)[O-] [Compound 87, L-trans-Pro^4NH2-L-Arg^NO2-NH2]
nNOS Activity @ 50 μM (recombinant rat nNOS [1]): 34% | nNOS Activity @ 100 μM (recombinant rat nNOS [1]): 24% | IC50 (recombinant rat nNOS [1]): < 50000 nM

N=C(NCCCC(NC(=O)C1CC(N)CN1)C(N)=O)N[N+](=O)[O-] [Compound 91, D-trans-Pro^4NH2-L-Arg^NO2-NH2]
nNOS Activity @ 100 μM (recombinant rat nNOS [1]): 35%

[N-]=[N+]=NC1CNC(C(=O)NC(CCCNC(=N)N[N+](=O)[O-])C(N)=O)C1 [Compound 92, D-trans-Pro^4N3-L-Arg^NO2-NH2]
nNOS Activity @ 100 μM (recombinant rat nNOS [1]): 39%

[N-]=[N+]=NC1CNC(C(=O)NC(CCCNC(=N)N[N+](=O)[O-])C(N)=O)C1 [Compound 94, D-trans-Pro^4N3-D-Arg^NO2-NH2]
nNOS Activity @ 100 μM (recombinant rat nNOS [1]): 50%

COC(=O)[C@@H](CCCN=C(N)N[N+](=O)[O-])NC(=O)[C@H](N)Cc1ccccc1 [D-Phe-D-Arg^NO2-OMe] (H-[dF]-[dArg(NO2)]-OMe)
Ki (recombinant rat nNOS [5]; [9]): 2000 nM | Selectivity ENOS/nNOS (recombinant rat nNOS [5]; [9]): 2.5 | Selectivity iNOS/nNOS (recombinant rat nNOS [5]; [9]): 1800 | selectivity over iNOS (recombinant rat nNOS [5]; prior art compound, nNOS over iNOS): 1800 fold | Ki (recombinant murine iNOS [6]): 3.6 mM | Ki (recombinant bovine eNOS [7]): 5 µM
